Experimental findings from PubChem BioAssay (NCI) are described below.

Several values for one entry are separate records, joined by “and”; a condition that tells them apart may be missing. Equal entries are not always repeated.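 Exposure lasted 48 hours, with cells grown in 96-well plates and compounds tested at five concentrations. Here, GI50 denotes the concentration required for 50% inhibition of growth. At the TGI there is no net growth.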

Among the test systems are A498 renal; HCT-116 colon; HL-60(TB) leukemia; M14 melanoma; MDA-MB-231 breast; MDA-MB-435; NCI-H226 lung; OVCAR-5 ovarian; UACC-257 melanoma; BT-549 breast.
What all share (test): NCI-60 cell line screen, 48 h

Turning to `CC(C)C1=CC23CCC4C(C)(C(=O)O)CCCC4(C)C2CC1C1C(=O)N(c2ccc(Cc4ccc(N5C(=O)C6C7CC8C9(C)CCCC(C)(C(=O)O)C9CCC8(C=C7C(C)C)C6C5=O)cc4)cc2)C(=O)C13` (stereo not given), the TGI with A498 renal came out at 22.5 µM; in the assay on HCT-116 colon, 19.1 µM; in the assay with HL-60(TB) leukemia it was 63.2 µM; with M14 melanoma, 22.1 µM; in the assay with MDA-MB-231 breast it was 58.8 µM; in the assay on MDA-MB-435, 13.3 µM. The TGI with NCI-H226 lung is 28.4 µM; in the assay on OVCAR-5 ovarian, 35.8 µM.

On to `O=C1c2ccccc2C(=O)N1CCn1ccc(NC(c2ccccc2)(c2ccccc2)c2ccccc2)nc1=O`, for which the TGI with A498 renal amounted to 38.6 µM; in the assay on HCT-116 colon, 32.4 µM; in the assay with HL-60(TB) leukemia, 44.2 µM; in the assay with M14 melanoma, 43 µM; with NCI-H226 lung, 34.1 µM; in the assay on OVCAR-5 ovarian it was 62.6 µM. For the same compound, the TGI in the assay on UACC-257 melanoma turned out to be 34.7 µM.

Consider `COc1ccc2occ(CCC(=O)O)c2c1`, for which the TGI in the assay with A498 renal, with HCT-116 colon, with HL-60(TB) leukemia, in the assay with M14 melanoma and in the assay on UACC-257 melanoma was > 100 µM throughout.

As for `CCOC(=O)c1cnc2c(ccc3[nH]n(C)nc32)c1=O`, the TGI in the assay with A498 renal is > 100 µM; in the assay on HCT-116 colon, 61.4 µM; in the assay with HL-60(TB) leukemia, > 100 µM; in the assay with M14 melanoma it was > 100 µM; in the assay with NCI-H226 lung it was > 100 µM; in the assay with OVCAR-5 ovarian, > 100 µM. Further, the TGI in the assay with UACC-257 melanoma is > 100 µM.

`CC1(C)COC(C2(C)C(=O)C=C(c3ccccc3)c3ccccc32)=N1` (stereo not given): the TGI is > 100 µM with HCT-116 colon; 67.7 µM in the assay with HL-60(TB) leukemia; > 100 µM in the assay on M14 melanoma; > 100 µM in the assay with NCI-H226 lung; > 100 µM in the assay on UACC-257 melanoma.

Take `O=C1CCC(Cl)=CC2CCCN12` (stereo not given): the TGI in the assay on A498 renal, in the assay with HCT-116 colon, with HL-60(TB) leukemia, in the assay on M14 melanoma, with NCI-H226 lung and with OVCAR-5 ovarian was > 100 µM each time. In addition, the TGI in the assay on UACC-257 melanoma is > 100 µM.

With `CCN(CC)CCCN1CCc2c([nH]c3ccccc23)C1c1cccnc1` (stereo not given), the TGI with A498 renal, with HCT-116 colon, in the assay on HL-60(TB) leukemia, in the assay on M14 melanoma, in the assay with NCI-H226 lung and in the assay on OVCAR-5 ovarian was > 100 µM each time. In addition, the TGI in the assay on UACC-257 melanoma is > 100 µM.

Turning to `CC(C)(C)NNC(=O)CCn1[nH]c(=O)c(Cl)c(Cl)c1=O`, the TGI in the assay with A498 renal, in the assay on HL-60(TB) leukemia, with M14 melanoma, in the assay on NCI-H226 lung, with OVCAR-5 ovarian and in the assay with UACC-257 melanoma was > 100 µM in each case.

On to `O=[N+]([O-])c1ccc2[nH]c(=S)[nH]c(=S)c2c1`, for which the TGI in the assay on A498 renal, with HCT-116 colon, with HL-60(TB) leukemia, with M14 melanoma, in the assay on MDA-MB-231 breast and in the assay with MDA-MB-435 was > 100 µM in each case. Besides, the TGI with NCI-H226 lung, in the assay on OVCAR-5 ovarian and in the assay with UACC-257 melanoma was > 100 µM throughout.

As for `OC(CC1SCCCS1)c1ccccc1` (stereo not given), the TGI in the assay on A498 renal, in the assay on HCT-116 colon, with HL-60(TB) leukemia, in the assay with M14 melanoma, in the assay on NCI-H226 lung and with OVCAR-5 ovarian was > 100 µM in each case. Moreover, the TGI in the assay on UACC-257 melanoma was > 100 µM.

Consider `Cc1ccc(S(=O)(=O)N(C=O)N=C2CCN(Cc3ccccc3)CC2)cc1`, for which the TGI in the assay on A498 renal, in the assay with HCT-116 colon, with HL-60(TB) leukemia, with M14 melanoma, in the assay on NCI-H226 lung and with OVCAR-5 ovarian was > 100 µM in each case. In the assay on UACC-257 melanoma, the TGI was > 100 µM.

As for `Clc1ccc2c(c1)[nH]c1c2nc2ccccn21`, the TGI with A498 renal is > 100 µM and 44.5 µM; in the assay with HCT-116 colon it was 48.3 µM and 46.6 µM; in the assay on M14 melanoma, 64.5 µM and 36.9 µM; in the assay on NCI-H226 lung, 44.7 µM and 63.9 µM; in the assay with OVCAR-5 ovarian, > 100 µM and 30.1 µM; in the assay on UACC-257 melanoma, 89.4 µM and 32.3 µM. The GI50 in the assay on OVCAR-5 ovarian was 38.8 µM and 16.5 µM.

Take `Nc1nc(Cl)cc(NCCCCCCCCNc2cc(Cl)nc(N)n2)n1`: the TGI with HCT-116 colon is > 100 µM; in the assay with HL-60(TB) leukemia, 48.5 µM; in the assay on M14 melanoma it was > 100 µM; in the assay on NCI-H226 lung it was 48.5 µM; with UACC-257 melanoma it was > 100 µM.

Regarding `O=[N+]([O-])c1cccc(C2=NN(c3ccccc3)C[N+](c3ccc(Br)cc3)=N2)c1`, the TGI in the assay on A498 renal, with HCT-116 colon, in the assay on M14 melanoma, with OVCAR-5 ovarian and with UACC-257 melanoma was > 100 µM throughout.

Take `CO/N=C(/C)c1cccc(Nc2cc(-n3nnc4ccccc43)nc3ccccc23)c1`: the GI50 was 63.2 µM in the assay on BT-549 breast; 27 µM in the assay with HCT-116 colon; 37.4 µM with M14 melanoma; 7.55 µM with MDA-MB-231 breast; 14.8 µM in the assay on MDA-MB-435; 27.3 µM with NCI-H226 lung. Moreover, the values for the GI50 with OVCAR-5 ovarian and in the assay with UACC-257 melanoma were 41.7 µM and 87.5 µM, respectively. Moreover, the TGI with BT-549 breast was > 100 µM; with HCT-116 colon, > 100 µM; in the assay on M14 melanoma it was > 100 µM; with MDA-MB-231 breast, 60.2 µM; in the assay with MDA-MB-435 it was 39.4 µM; with NCI-H226 lung, > 100 µM. Besides, the TGI in the assay on OVCAR-5 ovarian and with UACC-257 melanoma was > 100 µM each time.

For `CN1CC(=O)N2Cc3ccccc3-n3cccc3C2C1` (stereo not given), the TGI in the assay with A498 renal, in the assay on HCT-116 colon, in the assay with M14 melanoma, in the assay with OVCAR-5 ovarian and with UACC-257 melanoma was > 100 µM throughout.

Regarding `Cc1cn2c(=O)c3ncn(C4OC(CO)C(O)C4O)c3n(C)c2n1` (stereo not given), the TGI in the assay with A498 renal, with HCT-116 colon, in the assay on HL-60(TB) leukemia, with M14 melanoma, with NCI-H226 lung and in the assay on OVCAR-5 ovarian was > 100 µM throughout. For the same compound, in the assay with UACC-257 melanoma, the TGI was > 100 µM.
